The source of these data is ChEMBL document CHEMBL1130502, “Lipopeptide antifungal agents: Amine conjugates of the semi-synthetic pneumocandins L-731,373 and L-733,560” (Bioorg Med Chem Lett, 1997).

Each structure is given as a SMILES string. Converted amounts (≈) assume the structure as drawn.

The target in one series is 1,3-beta-glucan synthase (Candida glabrata, UniProt F5BCZ9). The experiment in a line: Inhibition of 1,3-beta-glucan synthase. Also noted: species or system Candida glabrata CBS 138.
Chain of 1,3-beta-glucan synthase (F5BCZ9 whole entry): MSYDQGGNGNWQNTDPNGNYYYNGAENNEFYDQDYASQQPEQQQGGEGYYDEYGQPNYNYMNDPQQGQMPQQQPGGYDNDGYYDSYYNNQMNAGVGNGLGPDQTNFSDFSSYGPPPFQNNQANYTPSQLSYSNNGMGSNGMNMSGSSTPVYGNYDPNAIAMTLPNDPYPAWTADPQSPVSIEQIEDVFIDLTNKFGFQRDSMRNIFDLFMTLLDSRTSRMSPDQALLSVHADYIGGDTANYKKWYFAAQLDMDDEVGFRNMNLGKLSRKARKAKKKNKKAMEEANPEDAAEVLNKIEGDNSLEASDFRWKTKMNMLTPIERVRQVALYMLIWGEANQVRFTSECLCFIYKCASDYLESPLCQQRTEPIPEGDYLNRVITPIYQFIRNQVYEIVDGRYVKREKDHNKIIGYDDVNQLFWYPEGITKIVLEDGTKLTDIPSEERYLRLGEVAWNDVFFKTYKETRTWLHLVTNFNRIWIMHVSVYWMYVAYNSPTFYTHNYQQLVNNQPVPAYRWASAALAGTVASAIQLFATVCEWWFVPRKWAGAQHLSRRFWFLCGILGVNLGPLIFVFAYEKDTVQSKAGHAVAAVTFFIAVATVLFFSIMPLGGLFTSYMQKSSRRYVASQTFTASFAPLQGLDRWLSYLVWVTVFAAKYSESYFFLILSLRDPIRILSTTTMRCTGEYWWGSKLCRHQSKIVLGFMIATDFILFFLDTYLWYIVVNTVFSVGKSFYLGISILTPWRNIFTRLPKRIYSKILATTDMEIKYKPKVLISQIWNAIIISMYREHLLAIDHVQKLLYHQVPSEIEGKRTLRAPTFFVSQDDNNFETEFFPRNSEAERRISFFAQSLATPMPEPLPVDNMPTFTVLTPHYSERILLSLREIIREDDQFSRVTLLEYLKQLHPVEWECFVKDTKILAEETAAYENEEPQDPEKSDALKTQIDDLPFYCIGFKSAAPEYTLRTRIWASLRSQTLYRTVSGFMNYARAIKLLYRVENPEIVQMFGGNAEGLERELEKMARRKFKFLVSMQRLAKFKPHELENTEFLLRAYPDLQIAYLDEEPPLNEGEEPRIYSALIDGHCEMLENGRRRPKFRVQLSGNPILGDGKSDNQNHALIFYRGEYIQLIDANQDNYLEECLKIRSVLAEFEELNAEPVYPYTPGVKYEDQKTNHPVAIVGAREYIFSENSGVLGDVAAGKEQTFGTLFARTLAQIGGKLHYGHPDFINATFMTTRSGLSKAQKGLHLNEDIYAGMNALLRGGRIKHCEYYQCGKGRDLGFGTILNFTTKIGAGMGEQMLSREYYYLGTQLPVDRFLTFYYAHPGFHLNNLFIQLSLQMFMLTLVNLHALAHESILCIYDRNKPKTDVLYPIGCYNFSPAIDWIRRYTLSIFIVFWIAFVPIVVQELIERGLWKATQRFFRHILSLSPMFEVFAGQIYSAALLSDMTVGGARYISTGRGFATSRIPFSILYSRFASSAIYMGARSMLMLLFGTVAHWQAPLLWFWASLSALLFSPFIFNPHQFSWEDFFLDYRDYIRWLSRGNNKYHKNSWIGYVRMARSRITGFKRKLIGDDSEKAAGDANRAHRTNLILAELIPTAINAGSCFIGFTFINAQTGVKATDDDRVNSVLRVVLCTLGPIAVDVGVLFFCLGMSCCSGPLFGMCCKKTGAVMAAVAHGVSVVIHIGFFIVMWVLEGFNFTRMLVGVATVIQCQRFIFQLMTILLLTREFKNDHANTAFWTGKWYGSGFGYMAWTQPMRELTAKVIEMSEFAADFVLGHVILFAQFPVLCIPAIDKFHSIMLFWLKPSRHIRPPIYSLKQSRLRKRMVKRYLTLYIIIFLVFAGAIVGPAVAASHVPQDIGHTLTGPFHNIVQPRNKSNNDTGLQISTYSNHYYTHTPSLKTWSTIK
In a further series the test system is Candida albicans. The experiment in a line: Tested for minimum fungicidal concentration (MFC) against Candida albicans (MY 1055). It counts as functional.
The species named for series [1] is Mus musculus. In words: […] anti-candida activity expressed as ED99.9 in a mouse model of disseminated candidiasis (TOKA). It counts as functional.
Series [2] is described as follows: Acute toxicity in mice after intravenous administration. As to conditions: mouse, in vivo.
Series [3] is filed under the species Mus musculus. In words: Percentage of mice with complete eradication of candida in kidneys. Type of series: functional, Kidney.

As a reminder, the IC50 is the concentration that inhibits the measured activity by half. A low value points to greater potency in that assay. A word on the MFC: it is the smallest concentration meeting the test's criterion for killing the fungus. Lower therefore signals greater fungicidal potency. For `CCC(C)CC(C)CCCCCCCCC(=O)NC1C[C@@H](O)[C@@H](O)NC(=O)C2CN(C[C@@H]2O)C(=O)[C@H]([C@H](O)CCNC(=O)CCCCCN)NC(=O)[C@H]([C@H](O)[C@@H](O)c2ccc(O)cc2)NC(=O)C2C[C@@H](O)CN2C(=O)[C@H]([C@@H](C)O)NC1=O` (some centres undefined), the IC50 against 1,3-beta-glucan synthase was 90 nM. Also, the MFC with Candida albicans is 0.5 µg/mL (≈ 0.429 µM). In the series listed under Mus musculus [1], the ED99.9 was greater than 1.5 mg/kg. In series [2], this molecule returned a Dose of 250 mg/kg. In the series listed under Mus musculus [3], the Sterilized is 0%.

With `CCC(C)CC(C)CCCCCCCCC(=O)NC1C[C@@H](O)[C@@H](O)NC(=O)C2CN(C[C@@H]2O)C(=O)[C@H]([C@H](O)CCNC(C)=O)NC(=O)[C@H]([C@H](O)[C@@H](O)c2ccc(O)cc2)NC(=O)C2C[C@@H](O)CN2C(=O)[C@H]([C@@H](C)O)NC1=O` (some centres undefined), on 1,3-beta-glucan synthase, the midpoint of inhibition, the IC50, lay at 300 nM. The MFC against Candida albicans is 2 µg/mL (≈ 1.83 µM). The molecule further displayed an ED99.9 in the series listed under Mus musculus [1] of 12 mg/kg. The molecule also returned a Dose in series [2] greater than 250 mg/kg. In the series filed under Mus musculus [3], this molecule returned a Sterilized of 0%.

At 1,3-beta-glucan synthase, `CCC(C)CC(C)CCCCCCCCC(=O)NC1C[C@@H](O)[C@@H](OCCN)NC(=O)C2CN(C[C@@H]2O)C(=O)[C@H]([C@H](O)CCNC(=O)[C@@H](N)CCN)NC(=O)[C@H]([C@H](O)[C@@H](O)c2ccc(O)cc2)NC(=O)C2C[C@@H](O)CN2C(=O)[C@H]([C@@H](C)O)NC1=O` (some centres undefined) yielded an IC50 of 6 nM. In the series with Candida albicans, the MFC was found to be 0.5 µg/mL (≈ 0.419 µM). For the same molecule, in the series filed under Mus musculus [1], the ED99.9 turned out to be 0.09 mg/kg. This molecule also displayed a Dose in series [2] of 100 mg/kg. The Sterilized in the series listed under Mus musculus [3] is on record as 0%.

Consider `CCC(C)CC(C)CCCCCCCCC(=O)NC1C[C@@H](O)[C@@H](O)NC(=O)C2CN(C[C@@H]2O)C(=O)[C@H]([C@H](O)CCNC(=O)[C@@H](N)CCCN)NC(=O)[C@H]([C@H](O)[C@@H](O)c2ccc(O)cc2)NC(=O)C2C[C@@H](O)CN2C(=O)[C@H]([C@@H](C)O)NC1=O` (some centres undefined), for which half-maximal inhibition at 1,3-beta-glucan synthase (IC50) was put at 3 nM. This molecule also came in with an MFC against Candida albicans of less than 0.06 µg/mL. This molecule showed an ED99.9 in the series filed under Mus musculus [1] of 0.375 mg/kg. In series [2], the Dose was greater than 200 mg/kg. Moreover, the Sterilized in the series listed under Mus musculus [3] was 20%.

For `CCC(C)CC(C)CCCCCCCCC(=O)NC1C[C@@H](O)[C@@H](O)NC(=O)C2CN(C[C@@H]2O)C(=O)[C@H]([C@H](O)CCNC(=O)CCCCN)NC(=O)[C@H]([C@H](O)[C@@H](O)c2ccc(O)cc2)NC(=O)C2C[C@@H](O)CN2C(=O)[C@H]([C@@H](C)O)NC1=O` (some centres undefined), it took 20 nM to reach half-maximal inhibition on 1,3-beta-glucan synthase (IC50). This molecule also came in with an MFC in the series on Candida albicans of 0.5 µg/mL (≈ 0.435 µM). For the same molecule, the ED99.9 in the series filed under Mus musculus [1] came to 1.5 mg/kg. The molecule also came in with a Dose in series [2] of 250 mg/kg. This molecule yielded a Sterilized in the series filed under Mus musculus [3] of 0%.

`CCC(C)CC(C)CCCCCCCCC(=O)NC1C[C@@H](O)[C@@H](O)NC(=O)C2CN(C[C@@H]2O)C(=O)[C@H]([C@H](O)CCNC(=O)CCCN)NC(=O)[C@H]([C@H](O)[C@@H](O)c2ccc(O)cc2)NC(=O)C2C[C@@H](O)CN2C(=O)[C@H]([C@@H](C)O)NC1=O` (some centres undefined) registered an IC50 against 1,3-beta-glucan synthase of 50 nM. In the series with Candida albicans, this molecule came in with an MFC of less than 0.06 µg/mL. In the series filed under Mus musculus [1], this molecule returned an ED99.9 of 1.5 mg/kg. The Dose in series [2] is greater than 100 mg/kg. This molecule yielded a Sterilized in the series listed under Mus musculus [3] of 40%.

Turning to `CCC(C)CC(C)CCCCCCCCC(=O)NC1C[C@@H](O)[C@@H](O)NC(=O)C2CN(C[C@@H]2O)C(=O)[C@H]([C@H](O)CCNC(=O)CN)NC(=O)[C@H]([C@H](O)[C@@H](O)c2ccc(O)cc2)NC(=O)C2C[C@@H](O)CN2C(=O)[C@H]([C@@H](C)O)NC1=O` (some centres undefined), at 1,3-beta-glucan synthase, the IC50 worked out at 15 nM. In addition, the MFC against Candida albicans amounted to 0.5 µg/mL (≈ 0.451 µM). The same molecule registered an ED99.9 in the series listed under Mus musculus [1] of 0.375 mg/kg. Besides, the Dose in series [2] came to 250 mg/kg. For the same molecule, the Sterilized in the series listed under Mus musculus [3] worked out at 20%.

Regarding `CCC(C)CC(C)CCCCCCCCC(=O)NC1C[C@@H](O)[C@@H](O)NC(=O)C2CN(C[C@@H]2O)C(=O)[C@H]([C@H](O)CCNC(=O)CCCCCCN)NC(=O)[C@H]([C@H](O)[C@@H](O)c2ccc(O)cc2)NC(=O)C2C[C@@H](O)CN2C(=O)[C@H]([C@@H](C)O)NC1=O` (some centres undefined), the MFC against Candida albicans amounted to 2 µg/mL (≈ 1.7 µM). For the same molecule, the ED99.9 in the series listed under Mus musculus [1] is greater than 1.5 mg/kg. Also, the Dose in series [2] is 200 mg/kg. In the series filed under Mus musculus [3], this molecule gave a Sterilized of 0%.
